Measured values from patent publication US6642434B1, “Transgenic plants with γ-tocopherol methyltransferase” (University of Community College System of Nevada, priority 1997, dated 2003).

Tests used:
[1] = system: Synechocystis γ-tocopherol methyltransferase (SLR0089); assay: γ-TMT assay with Synechocystis SLR0089 protein expressed in E. coli; assay type: biochemical, Synechocystis PCC6803; conditions: for use as substrate (methylation) by Synechocystis γ-TMT: 5 mM substrate, pH 7.5, 14C-methyl-SAM, 30 minutes room temperature
Description: (§1) The p011698-1 and p011898-1 constructs were used to transform the E. coli T7 expression host BL21(DE3). To generate protein for γ-TMT assays, one liter cultures of transformed host cells containing one of the constructs were grown in Luria broth containing 100 mg/liter ampicillin. Each culture was started at an optical density at 600 nm (OD600) of 0.1 and incubated in a shaking incubator at 28° C. until the culture reached an OD600 of 0.6, at which time isopropyl-, β-D-thiogalactopyranoside (IPTG) was added to each culture to obtain a final concentration of 0.4 mM IPTG. Each culture was incubated for an additional 3 hours at 28° C. and the cells were harvested by centrifugation at 8,000 g. The cell pellets were then resupended in 10 ml of 10 mM HEPES (pH 7.8), 5 mM DTT, 0.24 M sorbitol, 1 mM PMSF. The cells were lysed by sonication with a micro-tip sonicator using four 10-second pulses. Triton×100 was added to each homogenate to a final concentration of 1%. The homogenates were incubated on ice for 30 minutes, and subjected to centrifugation at 30,000 g for 30 minutes at 4° C. The supernatants of these extracts were assayed for γ-tocopherol methyltransferase activity as follows.
(§2) The γ-TMT assays were performed in 250 μl volumes containing 50 mM Tris (pH 7.5 for the Synechocystis and pH 8.5 for the Arabidopsis enzyme), 5 mM DTT, 5 mM γ- or δ-tocopherol, and 0.025 μCi (55 μCi/mmole) (^14C-methyl)-S-adenosylmethionine. Reaction mixtures were incubated at room temperature for 30 minutes. The reactions were stopped by adding of 1 ml of 2:1 (v:v) CHCl3: methanol containing 1 mg/ml butylated hydroxytolulene (BHT) and 250 μl of 0.9% NaCl in water, and vortexing. The samples were centrifuged to separate the phases. The CHCl3 (lower) phase was transferred to a fresh tube containing […] of α-tocopherol and the CHCl3 was then removed under vacuum in a speed-vac. The dried lipid fraction was resuspended in 50 μl ethyl acetate containing 1 mg/ml BHT. The lipid extracts were fractionated on silica 60 TLC plates in dichloromethane. Tocopherols were then identified by co-migration with authentic tocopherol standards after staining the plate with Emmerie-Engels solution (0.1% FeCl3, 0.25% 2,2′-dipyridyl in ethanol). The band corresponding to α-tocopherol was scraped from the TLC plate and the amount of radioactive material present was determined by scintillation counting.
(§3) The Synechocystis and Arabidopsis γ-tocopherol methyltransferases were tested for activity using several different methyl-substituted tocopherol substrates. […] The two enzymes were unable to use tocol, 5,7-diemethyltocol, β-tocopherol, and γ-tocotrienol as substrates. […] The Synechocystis and Arabidopsis γ-TMTs appear to require substrates with a methyl-group present on the 8 position of the chromanol ring and a fully saturated prenyl-tail for activity.

[2] = target: T1, Arabidopsis γ-tocopherol methyltransferase (165H5T7) (Arabidopsis thaliana, UniProt Q9ZSK1); assay: γ-TMT assay with Arabidopsis 165H5T7 protein expressed in E. coli; assay type: biochemical; conditions: for use as substrate (methylation) by Arabidopsis γ-TMT: 5 mM substrate, pH 8.5, 14C-methyl-SAM, 30 minutes room temperature
T1 construct: made in house; host or cells: E. coli BL21(DE3), pET3D vector; Triton X-100 supernatant of the lysate
T1 sequence (Q9ZSK1 51-348): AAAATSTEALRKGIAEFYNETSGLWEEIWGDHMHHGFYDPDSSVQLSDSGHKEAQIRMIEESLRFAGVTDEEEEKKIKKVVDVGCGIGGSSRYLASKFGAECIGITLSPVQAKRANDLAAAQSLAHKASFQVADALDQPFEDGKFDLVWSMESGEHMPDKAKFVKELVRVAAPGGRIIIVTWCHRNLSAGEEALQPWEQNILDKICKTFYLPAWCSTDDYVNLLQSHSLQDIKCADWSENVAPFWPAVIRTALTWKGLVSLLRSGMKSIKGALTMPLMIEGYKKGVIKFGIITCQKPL
Description: as §1, §2, §3

| Structure (SMILES) | use as substrate (methylation) by Synechocystis γ-TMT [1] | use as substrate (methylation) by Arabidopsis γ-TMT [2] | relative activity of Synechocystis γ-TMT toward γ- and δ-tocopherol [1] | relative activity of Arabidopsis γ-TMT toward γ- and δ-tocopherol [2] |
| --- | --- | --- | --- | --- |
| CC(C)CCCC(C)CCCC(C)CCCC1(C)CCc2cc(O)ccc2O1 (stereo not shown) [tocol] | unable to use | unable to use |  |  |
| Cc1c(O)cc2c(c1C)O[C@](C)(CCC[C@H](C)CCC[C@H](C)CCCC(C)C)CC2 [γ-tocopherol] | able to convert γ-tocopherol to α-tocopherol | able to convert γ-tocopherol to α-tocopherol | equally active toward γ-tocopherol and δ-tocopherol | greater activity with γ-tocopherol as the substrate than with the δ-tocopherol substrate |
| Cc1cc(O)c(C)c2c1O[C@](C)(CCC[C@H](C)CCC[C@H](C)CCCC(C)C)CC2 [β-tocopherol] | unable to use | unable to use |  |  |
| Cc1cc2c(c(C)c1O)CCC(C)(CCCC(C)CCCC(C)CCCC(C)C)O2 (stereo not shown) [5,7-diemethyltocol] | unable to use | unable to use |  |  |
| Cc1cc(O)cc2c1O[C@](C)(CCC[C@H](C)CCC[C@H](C)CCCC(C)C)CC2 [δ-tocopherol] | able to specifically convert δ-tocopherol to β-tocopherol | able to specifically convert δ-tocopherol to β-tocopherol | equally active toward γ-tocopherol and δ-tocopherol | greater activity with γ-tocopherol as the substrate than with the δ-tocopherol substrate |
| CC(C)=CCC/C(C)=C/CC/C(C)=C/CC[C@]1(C)CCc2cc(O)c(C)c(C)c2O1 [γ-tocotrienol] | unable to use | unable to use |  |  |
